Assay [1] concerns CD71 (transferrin receptor 1) in HCC cell lines. Briefly: Immunoblotting, CD71 (transferrin receptor 1) protein level. In kind it is cell-based, human. The note with it: six-day exposure to 10 μM or 30 μM; all four HCC cell lines. Here is the method:
(§1) The activity of gallium maltolate and gallium nitrate was studied in vitro on several human hepatocellular carcinoma (HCC) cell lines (Hep3B, HepG2, SNU475, and Hep 40). Further information on these experiments is reported by Chua et al., Anticancer Research 26:1739-1744, 2006.
(§2) Immunoblotting: Cells were exposed to 10 μM or 30 μM gallium maltolate for six days; whole cell lysates were then prepared and total protein quantified using the Bradford Assay. Approximately 20 μg of protein was electrophoresed on pre-cast gels and transferred onto PVDF membranes. Non-specific sites were blocked by incubation with 5% non-fat milk in TBS-1% Tween solution for 1 hr at room temperature. Proteins were then detected with specific antibodies against CD71 (transferrin receptor 1) or PARP at recommended dilutions, followed by appropriate HRP-conjugated secondary antibodies.
On the technique in general: Immunoblotting shows a protein as a band on a membrane.

Assay [2] concerns human hepatocellular carcinoma (HCC) cell lines (Hep3B, HepG2, SNU475, and Hep 40). As to the kind of experiment: Assessment of apoptotic cell morphology (hematoxylin and eosin, light microscope). In kind it is cell-based. Conditions: 30 μM, six days exposure; all four HCC cell lines. Here is the method:
as §1
Assessment of apoptotic cell morphology: After six days exposure to gallium maltolate at either 10 μM or 30 μM, cells were fixed using absolute methanol at −20° C. for 10 min, then stained with hematoxylin and eosin. Cell morphology was then observed with a light microscope.

The test system of assay [3] is poly(ADP-ribose) polymerase (PARP) in HCC cell lines. Briefly: Immunoblotting, PARP assay for apoptosis. In kind it is cell-based, human. Conditions: HCC cell lines Hep 3B, Hep 40, and SNU475; 10 μM or 30 μM, six days exposure. How it is done: as §1, §2

In the case of `Cc1occc(=O)c1[O-].Cc1occc(=O)c1[O-].Cc1occc(=O)c1[O-].[Ga+3]` [gallium maltolate, tris(3-hydroxy-2-methyl-4H-pyran-4-onato)gallium], the “protein level of CD71 (transferrin receptor 1)” value in assay [1] is recorded as “dose-dependent increase”. In assay [2], the “cellular morphology (apoptosis)” value is given as “indicative of apoptosis”. Besides, the “poly(ADP-ribose) polymerase (PARP) assay for apoptosis” value in assay [3] was “positive”.

For the origin of these results see patent US8076371B2, “Gallium compositions for the treatment of liver cancer and methods of use” (priority 2006, dated 2011).
